ChEMBL document CHEMBL1201862, “PubChem BioAssay data set” (2004)
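Compound exposure: 48 hours, 5 concentrations, 96-well plates. The concentration for 50% growth inhibition is given as GI50.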 Activity calls are given as the source filed them. Rule as the data show it: active = GI50 up to about 1.1 µM and inactive = higher.

Legend:
Assay in all cases: NCI anticancer screen, dose series, 48 h
786-0 = test system: 786-0
A498 = test system: A498
A549 = test system: A549
ACHN = test system: ACHN
CAKI-1 = test system: CAKI-1
CCRF-CEM = test system: CCRF-CEM
COLO 205 = test system: COLO 205
DMS-114 = test system: DMS-114
HCT-116 = test system: HCT-116
HCT-15 = test system: HCT-15
HL-60 = test system: HL-60
HOP-18 = test system: HOP-18
HOP-62 = test system: HOP-62
HOP-92 = test system: HOP-92
HT-29 = test system: HT-29
IGROV-1 = test system: IGROV-1
K562 = test system: K562
KM-20L2 = test system: KM-20L2
LXFL 529 = test system: LXFL 529
M14 = test system: M14
M19-MEL = test system: M19-MEL
MOLT-4 = test system: MOLT-4
Malme-3M = test system: Malme-3M
NCI-H522 = test system: NCI-H522
OVCAR-3 = test system: OVCAR-3
OVCAR-8 = test system: OVCAR-8
RPMI-8226 = test system: RPMI-8226
SF-268 = test system: SF-268
SF-295 = test system: SF-295
SF-539 = test system: SF-539
SK-MEL-28 = test system: SK-MEL-28
SK-MEL-5 = test system: SK-MEL-5
SK-OV-3 = test system: SK-OV-3
SN12C = test system: SN12C
SNB-19 = test system: SNB-19
SNB-75 = test system: SNB-75
SNB-78 = test system: SNB-78
SR = test system: SR
SW-620 = test system: SW-620
U-251 = test system: U-251
UACC-62 = test system: UACC-62
UO-31 = test system: UO-31
KM12 = test system: KM12
NCI-H23 = test system: NCI-H23
NCI-H460 = test system: NCI-H460
OVCAR-4 = test system: OVCAR-4
OVCAR-5 = test system: OVCAR-5
RXF 393 = test system: RXF 393
SK-MEL-2 = test system: SK-MEL-2
UACC-257 = test system: UACC-257

## CCOC(=O)Cc1c(Cc2[nH]c(C(=O)OCc3ccccc3)c(CC(=O)OCC)c2CC(=O)OCC)[nH]c(C(=O)OCc2ccccc2)c1CC(=O)OCC
786-0
  GI50: > 100 µM (inactive)
A498
  GI50: > 100 µM (inactive)
A549
  GI50: > 100 µM (inactive)
ACHN
  GI50: > 100 µM (inactive)
CAKI-1
  GI50: > 100 µM (inactive)
CCRF-CEM
  GI50: > 100 µM (inactive)
COLO 205
  GI50: > 100 µM (inactive)
DMS-114
  GI50: > 100 µM (inactive)
HCT-116
  GI50: > 100 µM (inactive)
HCT-15
  GI50: > 100 µM
HL-60
  GI50: > 100 µM (inactive)
HOP-18
  GI50: > 100 µM (inactive)
HOP-62
  GI50: > 100 µM (inactive)
HOP-92
  GI50: > 100 µM (inactive)
HT-29
  GI50: > 100 µM (inactive)
IGROV-1
  GI50: > 100 µM (inactive)
K562
  GI50: > 100 µM (inactive)
KM-20L2
  GI50: > 100 µM (inactive)
LXFL 529
  GI50: > 100 µM (inactive)
M14
  GI50: > 100 µM (inactive)
M19-MEL
  GI50: > 100 µM (inactive)
MOLT-4
  GI50: > 100 µM (inactive)
Malme-3M
  GI50: > 100 µM (inactive)
NCI-H522
  GI50: > 100 µM (inactive)
OVCAR-3
  GI50: > 100 µM (inactive)
OVCAR-8
  GI50: > 100 µM (inactive)
RPMI-8226
  GI50: > 100 µM (inactive)
SF-268
  GI50: > 100 µM (inactive)
SF-295
  GI50: > 100 µM (inactive)
SF-539
  GI50: > 100 µM (inactive)
SK-MEL-28
  GI50: > 100 µM (inactive)
SK-MEL-5
  GI50: > 100 µM (inactive)
SK-OV-3
  GI50: > 100 µM (inactive)
SN12C
  GI50: > 100 µM (inactive)
SNB-19
  GI50: > 100 µM (inactive)
SNB-75
  GI50: > 100 µM (inactive)
SNB-78
  GI50: > 100 µM (inactive)
SR
  GI50: > 100 µM (inactive)
SW-620
  GI50: > 100 µM (inactive)
U-251
  GI50: > 100 µM (inactive)
UACC-62
  GI50: > 100 µM (inactive)
UO-31
  GI50: 67.8 µM (inactive)

## CCO[C@@H]1OC(=O)[C@](C)(C(C)=O)[C@@H]1C
A498
  GI50: > 100 µM (inactive)
ACHN
  GI50: > 100 µM (inactive)
CCRF-CEM
  GI50: 14.7 µM (inactive)
COLO 205
  GI50: > 100 µM (inactive)
DMS-114
  GI50: 37.2 µM (inactive)
HL-60
  GI50: 17.9 µM (inactive)
HOP-62
  GI50: 43.2 µM (inactive)
HOP-92
  GI50: 27.5 µM (inactive)
HT-29
  GI50: 68.4 µM (inactive)
IGROV-1
  GI50: > 100 µM (inactive)
K562
  GI50: 44.2 µM (inactive)
KM-20L2
  GI50: > 100 µM (inactive)
KM12
  GI50: > 100 µM (inactive)
LXFL 529
  GI50: 40.6 µM (inactive)
M14
  GI50: 67 µM (inactive)
M19-MEL
  GI50: 58.1 µM (inactive)
MOLT-4
  GI50: 23.3 µM (inactive)
NCI-H23
  GI50: 16.8 µM (inactive)
NCI-H460
  GI50: > 100 µM (inactive)
NCI-H522
  GI50: > 100 µM (inactive)
OVCAR-3
  GI50: 29 µM (inactive)
OVCAR-4
  GI50: 71.9 µM (inactive)
OVCAR-5
  GI50: > 100 µM (inactive)
RPMI-8226
  GI50: 18.8 µM (inactive)
RXF 393
  GI50: 41.5 µM (inactive)
SF-268
  GI50: 14.7 µM (inactive)
SF-295
  GI50: 36.8 µM (inactive)
SF-539
  GI50: 23.1 µM (inactive)
SK-MEL-28
  GI50: 37.5 µM (inactive)
SK-MEL-2
  GI50: 55.2 µM (inactive)
SK-OV-3
  GI50: 59 µM (inactive)
SNB-19
  GI50: 75.3 µM (inactive)
SNB-75
  GI50: 0.21 µM (active)
SNB-78
  GI50: 33.7 µM (inactive)
SR
  GI50: 27.9 µM (inactive)
U-251
  GI50: 34.4 µM (inactive)
UACC-257
  GI50: > 100 µM (inactive)
UACC-62
  GI50: 57.8 µM (inactive)
UO-31
  GI50: > 100 µM (inactive)
